A short description of data set [1]: Caco-2 cell permeability assay. Format: in vitro ADME, human. The note with it: human, Caco-2. The procedure:
(§1) The Caco-2 cell line originated from a human colorectal carcinoma and was maintained in Dulbecco's modified Eagle's medium (DMEM) (95% humidity, 37°C, 5% CO2), supplemented with 10% (V/V) fetal bovine serum, 100 U/mL penicillin and 100 μg/mL streptomycin, 2 mM L-glutamine, and 1% nonessential amino acids (all from Invitrogen/GIBCO, Ghent, Belgium).
(§2) The Caco-2 cell intestinal model was used to investigate the gut mucosa permeation of pellitorine. On each Transwell (Corning Costar, New York, USA) membrane insert filter (0.4 μm pore size, 12 mm filter diameter), the cells were seeded at a density of 2.6 · 10^5 cells/cm^2 cells and cultivated in the described supplemented DMEM. Every second day, the medium was changed. During a period of 21–29 days, the cells were grown and differentiated until monolayers were formed. The integrity of the monolayers was checked via the measurement of transepithelial electrical resistance (TEER) of the monolayers with a Millicell-ERS system (Millipore Corp., Bedford, MA, USA) before and after the transport experiments. The experiments were performed in duplicate for each dose solution. Transport experiments were carried out according to Hubatsch et al. in two directions: from the apical-to-basolateral (ab) direction and from the basolateral-to-apical (ba) direction in Hanks' Balanced Salt solution. Two dose solutions of pellitorine (in Anacyclus pyrethrum extract) of 1 μg/mL in 0.5% EtOH (further indicated as DS1) and of 56 μg/mL in 0.5% of a mixture of vitamin E-TPGS (33.3%), EtOH (11.1%), PEG 400 (33.3%), and PG (22.2%) (further indicated as DS2) dissolved in HBSS were tested.
(§3) Final apical volumes of 0.4 mL and basolateral volumes of 1.2 mL were used for 12 mm filter supports during the transport experiment. After 15, 30, 60, 90, and 120 min, samples were taken from the receiver compartment (basolateral to apical transport: 100 μL, apical-to-basolateral transport: 300 μL) and immediately replaced by fresh HBSS. […] Pellitorine was quantified using a ultraperformance liquid chromatography-tandem mass spectrometry (UPLC-MS^2) method as described below.
(§4) The apparent permeability coefficient (P app in cm/s) of pellitorine in DS2 was calculated using a sink condition equation, while P app of pellitorine in DS1 was calculated using a nonsink equation. From Fick's first law, J = −D × [dC(x)]/dx (J is the flux or transfer rate along the donor-to-receptor side, D is the diffusion coefficient, x is the distance from the donor compartment, and C(x) is the concentration in the barrier at the coordinate x in the barrier), the following differential equation is derived: dM r(t)/dt = P app × A × [C d(t) − C r(t)], in which P app is the apparent permeability coefficient (a product of distribution coefficient with diffusion coefficient divided by the barrier thickness), M r is the amount of substance in the receiver chamber, A is the cross-sectional area of the barrier, C d is the donor concentration, and C r is the receiver concentration. This differential equation can be solved to calculate P app using different initial conditions depending on sink or nonsink conditions. In case of sink conditions, the following equation was obtained from the amount of compound transported per time dM r(t)/dt with the receiver concentration set to zero [18, 20]:(1) Mrt/Cd,0=Papp×A×t+c, where P app is the apparent permeability coefficient (cm/s), A is the surface area of the filter (1.12 cm^2), C d,0 is the initial concentration in the donor chamber (μg/mL), t is the time (s), and c is a constant term which vanishes, since M r is initially zero at t = 0.
(§5) The donor concentration at each time point was calculated by taking into account the amount of compound which already permeated through the cell monolayer during that time interval. In this way, the reduction in donor concentration after every sampling was also taken into account.
(In general: Caco-2 monolayers are a common model of the intestinal barrier.)

The test system of the next data set is Caco-2 cell monolayer. Kind of data set: Caco-2 cell permeability assay. Format: in vitro ADME, human. How it is done:
as §1, §2, §3, §4, §5

Data set [2] in a line: Capillary depletion experiment in mice. Format: in vivo, ICR-CD-1 mice. To be noted: 10 min after intravenous injection; for Kp at 10 min: female, ICR-CD-1, mouse, 36 μg/mouse. How it is done:
A capillary depletion experiment was performed to distinguish the transport of pellitorine into the brain, represented by the parenchyma, and part of pellitorine which is trapped by the endothelial cells of the brain, represented by the capillaries. A method of Triguero et al. was used, which was modified by Gutierrez et al.. The mice were anesthetized intraperitoneally with 40% (w/V) urethane solution (3 g/kg). Thereafter, 20 μL of the 1.8 mg/mL pellitorine dose solution was injected into the jugular vein. Ten min after injection, blood was collected from the abdominal aorta and serum was obtained by centrifuging the blood at 10 000 ×g during 15 min at 21°C. Then, after removing the skin of the mice's chest, the aorta is clamped, the jugular veins are severed, and the brain is immediately perfused manually with 20 mL of Lactated Ringer's solution. The mice are decapitated, and the brains are isolated, weighed, and put into tubes (LoBind Eppendorf), to which 525 μL ice-cold capillary buffer (10 mM HEPES, 141 mM NaCl, 4 mM KCl, 2.8 mM CaCl2, 1 mM MgSO4, 1 mM NaH2PO4, and 10 mM D-glucose adjusted to pH 7.4) was added. The tubes (LoBind Eppendorf) were homogenized. Next, 1000 μL of 26% ice-cold dextran solution in capillary buffer was added and vortexed and the tubes were subsequently centrifuged at 20 000 ×g for 60 min at 4°C. Parenchyma and fat tissue (supernatant) were transferred into separate tubes (LoBind Eppendorf) and weighed. The capillaries (pellet) were kept in the original tube. The sample preparation of the pellet and the supernatant is the same sample preparation method as used for the mice brains and mice serum, respectively, as described in Section 2.6.
The distribution in the brains was calculated as follows: (5) Fraction%=Mtissue/Mcapillaries+Mparenchyma×100 in which M tissue is the amount of pellitorine in the capillaries and parenchyma, M capillaries the amount of pellitorine in the capillaries, and M parenchyma the amount of pellitorine in the parenchyma. The capillary depletion experiment was performed in duplicate and mean values are reported.

On the set-up of data set [3]: method as in PMID 25481393. The note with it: cited from earlier work.
[4] abbreviates: apical-to-basolateral, DS1, after 120 min.
Setting [5] is: apical-to-basolateral, DS2, after 120 min.
Setting [6] is: basolateral-to-apical, DS1, after 120 min.
[7] abbreviates: basolateral-to-apical, DS2, after 120 min.

Like-named read-outs stand apart in the source and are kept apart here. A value given as a limit tells only on which side of the number the result lay.

For the compound `CCCCC/C=C/C=C/C(=O)NCC(C)C` [pellitorine, deca-2E,4E-dienoic acid isobutylamide], the Papp A→B at 120 min, 1 μg/mL in data set [1] (DS1: 1 μg/mL pellitorine (in Anacyclus pyrethrum extract) in 0.5% EtOH in HBSS, nonsink equation, mean ± SD, n = 2, read-out: apparent permeability coefficient (P app), apical-to-basolateral transport) turned out to be 48.08 ± 0.08 ×10⁻⁶ cm/s. Moreover, in data set [1] (DS1, mean ± SD, n = 2, read-out: apparent permeability coefficient (P app), basolateral-to-apical transport), the Papp B→A at 120 min, 1 μg/mL is 57.5 ± 6.2 ×10⁻⁶ cm/s. The Papp A→B at 120 min, 56 μg/mL in data set [1] (DS2: 56 μg/mL pellitorine (in Anacyclus pyrethrum extract) in 0.5% vitamin E-TPGS/EtOH/PEG 400/PG mixture in HBSS, sink equation, mean ± SD, n = 2, read-out: apparent permeability coefficient (P app), apical-to-basolateral transport) stood at 5.5 ± 0.06 ×10⁻⁶ cm/s. For the same compound, in data set [1] (DS2, mean ± SD, n = 2, read-out: apparent permeability coefficient (P app), basolateral-to-apical transport), the Papp B→A at 120 min, 56 μg/mL is 2.8 ± 0.09 ×10⁻⁶ cm/s. The recovery at 120 min in data set [1] (after 120 min, read-out: mass balance, total recovery) was in the range of 104 to 132%. The “uptake ratio (P app,ab/P app,ba)” value is 0.84 in the data set on Caco-2 cell monolayer (DS1) and 1.96 in the data set with Caco-2 cell monolayer (DS2). In addition, the “amount of pellitorine permeated” value worked out at 0.31 µg with Caco-2 cell monolayer (setting [4]), 2.24 µg in the data set on Caco-2 cell monolayer (setting [5]), 0.39 µg with Caco-2 cell monolayer (setting [6]) and 1.24 µg in the data set on Caco-2 cell monolayer (setting [7]). In addition, the “percentage of applied pellitorine permeated” value in the data set with Caco-2 cell monolayer (setting [4]) is on record as 56.7%; in the data set with Caco-2 cell monolayer (setting [5]), 9.98%; in the data set on Caco-2 cell monolayer (setting [6]) it was 23.7%; in the data set on Caco-2 cell monolayer (setting [7]), 1.84%. In addition, in the data set on Caco-2 cell monolayer (both dose solutions), the “ratio of P app values between the apical-to-basolateral and the basolateral-to-apical direction or vice versa” value is given as not above 2. In data set [2] (mean of duplicate), the “fraction in brain capillaries” value stood at 3%. Also, in data set [2] (mean of duplicate), the “fraction in brain parenchyma” value was 97%. For the same compound, the Kp at 10 min in data set [2] (brain capillaries (relative to serum), read-out: brain capillaries, brain/serum ratio) was found to be 0.01; in data set [2] (brain parenchyma (relative to serum), read-out: brain parenchyma, brain/serum ratio), 0.347. Also, the “aqueous permeability coefficient K p,aq” value is 2.3 10^−4 cm/h in data set [3] (pellitorine from crude plant extract) and 1.1 10^−4 cm/h in data set [3] (purified pellitorine).
